In one series the target is T1, human ABCC4 (Homo sapiens, UniProt O15439).
T1 sequence (O15439 1-1325): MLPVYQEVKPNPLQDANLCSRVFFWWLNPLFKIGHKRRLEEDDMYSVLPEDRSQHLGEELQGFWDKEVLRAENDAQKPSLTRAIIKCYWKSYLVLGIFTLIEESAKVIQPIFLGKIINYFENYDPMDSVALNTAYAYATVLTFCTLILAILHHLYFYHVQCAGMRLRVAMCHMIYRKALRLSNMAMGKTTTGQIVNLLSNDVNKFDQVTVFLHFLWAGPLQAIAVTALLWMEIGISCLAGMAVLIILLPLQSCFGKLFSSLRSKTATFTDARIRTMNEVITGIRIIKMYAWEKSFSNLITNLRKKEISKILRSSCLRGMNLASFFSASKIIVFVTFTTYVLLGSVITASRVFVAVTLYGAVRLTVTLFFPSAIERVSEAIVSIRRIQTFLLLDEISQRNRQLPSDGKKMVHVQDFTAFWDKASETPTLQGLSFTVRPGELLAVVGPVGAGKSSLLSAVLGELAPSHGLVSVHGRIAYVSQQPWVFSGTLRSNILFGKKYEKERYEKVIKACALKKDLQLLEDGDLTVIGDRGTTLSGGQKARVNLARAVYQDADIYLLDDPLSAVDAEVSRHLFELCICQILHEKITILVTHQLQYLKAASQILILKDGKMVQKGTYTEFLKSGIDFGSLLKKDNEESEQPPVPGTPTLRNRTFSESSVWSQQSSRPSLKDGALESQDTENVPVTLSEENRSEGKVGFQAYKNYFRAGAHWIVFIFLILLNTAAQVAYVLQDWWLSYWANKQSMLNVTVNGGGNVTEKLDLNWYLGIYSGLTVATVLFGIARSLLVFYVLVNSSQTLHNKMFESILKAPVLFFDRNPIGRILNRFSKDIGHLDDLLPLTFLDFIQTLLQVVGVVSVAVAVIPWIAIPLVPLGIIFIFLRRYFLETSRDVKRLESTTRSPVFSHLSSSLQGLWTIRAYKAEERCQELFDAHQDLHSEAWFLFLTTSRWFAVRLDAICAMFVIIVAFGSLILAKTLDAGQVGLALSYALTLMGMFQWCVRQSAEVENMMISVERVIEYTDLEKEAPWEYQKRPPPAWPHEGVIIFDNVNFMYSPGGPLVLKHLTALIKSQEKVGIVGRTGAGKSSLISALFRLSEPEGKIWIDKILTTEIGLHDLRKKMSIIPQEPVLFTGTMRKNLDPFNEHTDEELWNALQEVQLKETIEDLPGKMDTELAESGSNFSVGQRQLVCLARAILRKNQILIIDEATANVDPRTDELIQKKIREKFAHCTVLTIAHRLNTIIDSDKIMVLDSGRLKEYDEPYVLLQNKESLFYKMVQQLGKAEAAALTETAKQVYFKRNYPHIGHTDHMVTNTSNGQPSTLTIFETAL
The series is described as follows: In vitro vesicular transport, inside-out Sf9 vesicles expressing human ABCC4.

The target of a further series is human ABCC3 (Homo sapiens, UniProt O15438). In words: In vitro vesicular transport, inside-out Sf9 vesicles expressing human ABCC3. Format: in vitro ADME.
human ABCC3, sequence (O15438 whole entry): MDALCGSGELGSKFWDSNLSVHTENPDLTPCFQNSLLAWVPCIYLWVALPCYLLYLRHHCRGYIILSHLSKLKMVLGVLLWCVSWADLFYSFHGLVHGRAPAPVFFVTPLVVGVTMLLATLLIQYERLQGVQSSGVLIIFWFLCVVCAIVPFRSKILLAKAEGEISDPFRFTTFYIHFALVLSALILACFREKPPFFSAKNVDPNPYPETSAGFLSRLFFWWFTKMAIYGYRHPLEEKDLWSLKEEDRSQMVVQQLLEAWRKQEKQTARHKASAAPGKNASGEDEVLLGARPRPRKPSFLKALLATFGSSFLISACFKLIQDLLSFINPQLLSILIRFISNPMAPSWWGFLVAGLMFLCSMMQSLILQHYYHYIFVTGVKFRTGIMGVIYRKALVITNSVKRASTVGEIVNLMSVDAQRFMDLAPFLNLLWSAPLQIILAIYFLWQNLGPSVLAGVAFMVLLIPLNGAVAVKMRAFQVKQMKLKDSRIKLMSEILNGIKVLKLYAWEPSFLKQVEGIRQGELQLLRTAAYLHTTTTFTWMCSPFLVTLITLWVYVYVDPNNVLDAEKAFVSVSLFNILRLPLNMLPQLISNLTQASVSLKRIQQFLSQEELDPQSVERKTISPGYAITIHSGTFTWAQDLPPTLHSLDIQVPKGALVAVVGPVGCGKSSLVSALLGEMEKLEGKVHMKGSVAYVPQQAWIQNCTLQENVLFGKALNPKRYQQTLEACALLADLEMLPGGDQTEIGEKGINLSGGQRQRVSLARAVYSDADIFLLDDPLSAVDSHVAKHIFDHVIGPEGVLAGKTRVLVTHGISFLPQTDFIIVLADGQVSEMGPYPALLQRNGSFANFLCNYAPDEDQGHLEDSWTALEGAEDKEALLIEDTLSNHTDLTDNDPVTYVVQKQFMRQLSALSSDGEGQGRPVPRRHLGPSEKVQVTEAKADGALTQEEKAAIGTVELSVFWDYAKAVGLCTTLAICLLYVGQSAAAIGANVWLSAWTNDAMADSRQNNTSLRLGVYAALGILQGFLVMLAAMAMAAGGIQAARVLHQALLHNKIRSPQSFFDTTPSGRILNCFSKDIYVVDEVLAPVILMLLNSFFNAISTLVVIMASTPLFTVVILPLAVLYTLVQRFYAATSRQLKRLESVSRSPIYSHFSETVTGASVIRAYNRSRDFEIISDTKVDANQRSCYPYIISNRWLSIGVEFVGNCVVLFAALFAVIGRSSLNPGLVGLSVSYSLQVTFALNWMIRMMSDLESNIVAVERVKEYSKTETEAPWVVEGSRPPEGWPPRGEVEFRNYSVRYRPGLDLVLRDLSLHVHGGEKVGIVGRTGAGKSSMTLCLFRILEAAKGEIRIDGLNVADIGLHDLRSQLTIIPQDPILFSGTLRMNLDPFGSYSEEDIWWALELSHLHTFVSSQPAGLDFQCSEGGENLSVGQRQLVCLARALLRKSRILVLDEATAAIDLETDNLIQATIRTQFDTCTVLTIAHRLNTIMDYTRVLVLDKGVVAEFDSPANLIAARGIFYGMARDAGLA
The target of another series is human ABCC2 (Homo sapiens, UniProt Q92887). In words: In vitro vesicular transport, inside-out Sf9 vesicles expressing human ABCC2.
human ABCC2, sequence (Q92887 whole entry): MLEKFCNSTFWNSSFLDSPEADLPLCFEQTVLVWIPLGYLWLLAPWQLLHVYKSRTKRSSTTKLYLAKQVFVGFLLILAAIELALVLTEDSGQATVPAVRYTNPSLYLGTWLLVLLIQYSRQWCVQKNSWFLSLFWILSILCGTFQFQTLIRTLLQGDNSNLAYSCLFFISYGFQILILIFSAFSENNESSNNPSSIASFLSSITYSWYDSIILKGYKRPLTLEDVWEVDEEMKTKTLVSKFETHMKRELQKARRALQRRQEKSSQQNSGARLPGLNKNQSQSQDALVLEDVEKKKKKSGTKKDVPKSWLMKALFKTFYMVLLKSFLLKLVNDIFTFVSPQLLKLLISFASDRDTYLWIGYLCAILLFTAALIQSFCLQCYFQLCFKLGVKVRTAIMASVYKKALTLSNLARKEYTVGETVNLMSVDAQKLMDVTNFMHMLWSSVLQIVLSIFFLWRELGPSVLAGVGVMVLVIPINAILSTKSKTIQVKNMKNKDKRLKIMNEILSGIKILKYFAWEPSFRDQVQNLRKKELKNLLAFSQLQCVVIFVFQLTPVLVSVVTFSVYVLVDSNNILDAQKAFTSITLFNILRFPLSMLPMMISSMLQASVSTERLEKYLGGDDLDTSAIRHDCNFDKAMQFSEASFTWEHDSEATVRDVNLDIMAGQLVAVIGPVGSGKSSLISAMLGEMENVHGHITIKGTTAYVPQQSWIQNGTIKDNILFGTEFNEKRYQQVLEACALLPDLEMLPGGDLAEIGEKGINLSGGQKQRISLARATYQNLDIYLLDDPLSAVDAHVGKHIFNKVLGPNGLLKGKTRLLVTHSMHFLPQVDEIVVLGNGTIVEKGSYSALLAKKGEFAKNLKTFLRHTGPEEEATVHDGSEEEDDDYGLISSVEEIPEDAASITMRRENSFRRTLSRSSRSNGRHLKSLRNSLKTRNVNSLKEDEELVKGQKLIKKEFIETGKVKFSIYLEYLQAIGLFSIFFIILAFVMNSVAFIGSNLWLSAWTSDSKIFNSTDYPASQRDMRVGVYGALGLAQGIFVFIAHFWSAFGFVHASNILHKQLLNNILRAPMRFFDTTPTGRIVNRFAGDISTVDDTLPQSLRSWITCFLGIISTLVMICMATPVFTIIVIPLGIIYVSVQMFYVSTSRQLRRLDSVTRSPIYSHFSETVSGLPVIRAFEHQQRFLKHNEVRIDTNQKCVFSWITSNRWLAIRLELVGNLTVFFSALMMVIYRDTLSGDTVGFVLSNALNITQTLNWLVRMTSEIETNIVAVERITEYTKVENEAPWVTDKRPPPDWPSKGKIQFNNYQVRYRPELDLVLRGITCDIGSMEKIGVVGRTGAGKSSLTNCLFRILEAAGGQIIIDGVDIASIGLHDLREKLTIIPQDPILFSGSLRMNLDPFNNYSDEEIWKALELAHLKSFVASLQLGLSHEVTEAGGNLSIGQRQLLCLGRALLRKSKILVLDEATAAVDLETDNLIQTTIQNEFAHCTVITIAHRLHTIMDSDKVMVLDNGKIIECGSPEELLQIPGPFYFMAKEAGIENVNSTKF
Series [1] deals with Abcc2. In words: Pharmacokinetics. The following applies: after oral sorafenib 10 mg/kg.
In the next series the target is rat Abcc2 (Rattus norvegicus, UniProt Q63120). The series is described as follows: In vitro vesicular transport, inside-out Sf9 vesicles expressing rat Abcc2. The following applies: 5-min incubation, ATP 4 mM.
rat Abcc2, sequence (Q63120 whole entry): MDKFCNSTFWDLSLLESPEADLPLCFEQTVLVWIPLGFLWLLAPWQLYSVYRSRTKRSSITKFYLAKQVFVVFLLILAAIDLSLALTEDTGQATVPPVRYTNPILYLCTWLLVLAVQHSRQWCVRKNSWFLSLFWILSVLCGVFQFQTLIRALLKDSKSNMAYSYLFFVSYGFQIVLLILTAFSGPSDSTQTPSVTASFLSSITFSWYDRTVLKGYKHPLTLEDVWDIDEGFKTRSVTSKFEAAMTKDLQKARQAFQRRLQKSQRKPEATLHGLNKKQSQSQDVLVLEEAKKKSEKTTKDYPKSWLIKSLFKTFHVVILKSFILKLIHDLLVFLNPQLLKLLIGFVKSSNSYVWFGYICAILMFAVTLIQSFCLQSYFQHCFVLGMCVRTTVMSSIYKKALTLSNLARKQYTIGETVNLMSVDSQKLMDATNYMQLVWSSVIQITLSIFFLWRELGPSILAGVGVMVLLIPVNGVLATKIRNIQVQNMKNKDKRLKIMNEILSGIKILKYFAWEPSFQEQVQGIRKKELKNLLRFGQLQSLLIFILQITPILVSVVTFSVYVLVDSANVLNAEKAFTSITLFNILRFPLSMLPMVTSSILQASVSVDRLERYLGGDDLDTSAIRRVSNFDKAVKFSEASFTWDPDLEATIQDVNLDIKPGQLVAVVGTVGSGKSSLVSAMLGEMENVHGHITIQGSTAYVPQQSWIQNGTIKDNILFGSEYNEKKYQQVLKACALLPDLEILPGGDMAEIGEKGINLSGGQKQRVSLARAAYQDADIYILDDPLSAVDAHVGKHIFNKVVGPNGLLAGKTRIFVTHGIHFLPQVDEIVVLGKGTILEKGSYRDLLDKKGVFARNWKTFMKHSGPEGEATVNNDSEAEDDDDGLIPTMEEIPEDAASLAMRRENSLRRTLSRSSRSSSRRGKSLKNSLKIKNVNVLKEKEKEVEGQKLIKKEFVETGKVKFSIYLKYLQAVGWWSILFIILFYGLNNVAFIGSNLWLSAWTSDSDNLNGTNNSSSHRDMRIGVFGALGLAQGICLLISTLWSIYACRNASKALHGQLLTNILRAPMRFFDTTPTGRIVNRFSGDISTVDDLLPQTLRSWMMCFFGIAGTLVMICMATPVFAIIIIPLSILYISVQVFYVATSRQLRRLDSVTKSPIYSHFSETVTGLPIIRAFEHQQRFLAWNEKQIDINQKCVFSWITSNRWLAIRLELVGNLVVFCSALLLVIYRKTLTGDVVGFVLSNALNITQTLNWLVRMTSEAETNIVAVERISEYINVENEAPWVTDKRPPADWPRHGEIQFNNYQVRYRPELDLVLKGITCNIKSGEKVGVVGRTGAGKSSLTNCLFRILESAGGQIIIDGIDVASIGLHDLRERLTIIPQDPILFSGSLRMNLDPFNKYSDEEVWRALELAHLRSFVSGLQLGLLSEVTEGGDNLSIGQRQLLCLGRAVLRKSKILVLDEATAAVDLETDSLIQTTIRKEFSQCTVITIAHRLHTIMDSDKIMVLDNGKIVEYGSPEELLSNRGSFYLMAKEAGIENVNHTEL
The next series deals with Oatp1a/1b. The series is described as follows: Plasma and liver pharmacokinetics after oral sorafenib in Oatp1a/1b. The series is classed as in vivo, mouse. To be noted: oral sorafenib 10 mg/kg; Oatp1a/1b(−/−) mice.
For the next series, the system named is Abcc3. The series is described as follows: Plasma and liver pharmacokinetics after oral sorafenib in Abcc3. The series is classed as in vivo, mouse. To be noted: oral sorafenib 10 mg/kg; Abcc3(−/−) mice.
Series [2] in a line: Sorafenib plasma concentrations in FVB wildtype mice after oral sorafenib. To be noted: sorafenib 10 mg/kg oral.
Series [3] is classed as in vivo, mouse. The following applies: oral SG 10 mg/kg.
In series [4] the test system is mouse intestinal β-glucuronidases. In words: Ex vivo cecal incubations of SG. Format: in vitro ADME. To be noted: SG 2 µM, 6-hour period.
The test system of a further series is Oatp1a/1b;Abcc3. In words: Plasma and liver pharmacokinetics after oral sorafenib in Oatp1a/1b. The series is classed as in vivo, mouse. The following applies: oral sorafenib 10 mg/kg; Oatp1a/1b;Abcc3(−/−) mice.
The conditions of series [5]: cited from earlier work.
A further series relates to Oatp1a/1b;Abcc2. To be noted: oral sorafenib 10 mg/kg; Oatp1a/1b;Abcc2(−/−) mice.
The next series relates to Oatp1a/1b;Abcc2;Abcc3. To be noted: oral sorafenib 10 mg/kg; Oatp1a/1b;Abcc2;Abcc3(−/−) mice.
Series [6] relates to Abcc2. The series is described as follows: Pharmacokinetics.
The next series addresses mouse Abcc2 (Mus musculus, UniProt Q8VI47). The series is described as follows: In vitro vesicular transport, inside-out Sf9 vesicles expressing mouse Abcc2. To be noted: SG 10 µM, 5-min incubation, ATP 4 mM.
The next series relates to Abcc4. In words: Plasma and liver pharmacokinetics after oral sorafenib in Abcc4. The following applies: after oral sorafenib 10 mg/kg; Abcc4(−/−) mice.
In a further series the test system is Abcc3;Abcc4. In words: Plasma and liver pharmacokinetics after oral sorafenib in Abcc3. The following applies: after oral sorafenib 10 mg/kg; Abcc3;Abcc4(−/−) mice.
[7] abbreviates: rifampin 100 µM, SG 10 µM, 5 min.
Setting [8] is: SG 10 µM, 5-min incubation, ATP 4 mM.
Setting [9] is: increasing SG concentrations, 5 min, ATP 4 mM.
[10] abbreviates: read-out: Km of SG transport, increasing SG concentrations, 5 min, ATP 4 mM.

The values below come from paper PMC4490028 (Cancer research, 2015).

On to `CO[C@H]1/C=C/O[C@@]2(C)Oc3c(C)c(O)c4c(O)c(c(/C=N/N5CCN(C)CC5)c(O)c4c3C2=O)NC(=O)/C(C)=C\C=C\[C@H](C)[C@H](O)[C@@H](C)[C@@H](O)[C@@H](C)[C@H](OC(C)=O)[C@@H]1C` [rifampin], for which the “inhibition of ABCC4-mediated SG uptake” value on human ABCC4 (setting [7]) was “sensitive to inhibition”. Moreover, on human ABCC3 (setting [7]), the “inhibition of ABCC3-mediated SG uptake” value is listed as “sensitive to inhibition”. Further, at human ABCC2 (setting [7]), the “inhibition of ABCC2-mediated SG uptake” value is on record as “sensitive to inhibition”.

Take `CNC(=O)c1cc(Oc2ccc(NC(=O)Nc3ccc(Cl)c(C(F)(F)F)c3)cc2)cc[n+]1[O-]` [sorafenib-N-oxide]: the “increase in plasma levels in Abcc2(−/−) versus wildtype rats” value with Abcc2 [1] is ~ 2 fold.

For `CNC(=O)c1cc(Oc2ccc(NC(=O)Nc3ccc(Cl)c(C(F)(F)F)c3)cc2)ccn1` [sorafenib], the transport of sorafenib result at rat Abcc2 (sorafenib 10 µM) was “weakly”. In the series on Oatp1a/1b, the “liver levels of sorafenib versus wildtype” value is on record as “similar”; the “plasma levels of sorafenib versus wildtype” value is “not substantially altered”; the “plasma sorafenib exposure, lower than wildtype” value was ~ 25%. Moreover, in the series with Abcc3, the “liver levels of sorafenib versus wildtype” value is “similar” and the “plasma levels of sorafenib versus wildtype” value is listed as “not substantially altered”. The “sorafenib plasma steady-state concentrations” value in series [2] is 6 to 10 µM. In addition, the “time until sorafenib was detected in plasma after SG administration” value in [3] (initial study) was found to be 8 h. Further, in series [3] (at 8 hours after SG administration), the “sorafenib peak levels in plasma of vehicle-pretreated mice” value is 226 to 897 ng/mL. Also, the “sorafenib levels in plasma of neomycin-pretreated mice” value in series [3] (neomycin 200 mg/kg twice daily for 5 days, 8 to 24 hours) is listed as “below the limit of quantification”. The “time of sorafenib peak levels after SG administration” value in [3] (vehicle-pretreated mice) amounted to 8 h. In addition, the “sorafenib levels formed from SG in crude suspension of cecal content” value in series [4] is given as “corresponding increase”. For the same compound, the “increase in plasma levels in Abcc2(−/−) versus wildtype rats” value in the series with Abcc2 [1] is reported as ~ 2 fold. Also, in the series with Oatp1a/1b;Abcc3, the “liver levels of sorafenib versus wildtype” value is “similar” and the “plasma levels of sorafenib versus wildtype” value is “not substantially altered”. In [5] (adults and children treated at 400 mg or 200 mg/m^2 twice daily), the “average sorafenib plasma steady-state concentrations” value is 10 µM. For the same compound, the “decrease of systemic exposure to sorafenib by neomycin treatment” value in series [5] (neomycin treatment in humans) is “more than 50%”. Moreover, the “plasma and liver levels of sorafenib” value in the series with Oatp1a/1b;Abcc2 is reported as “not substantially altered”. Also, the “plasma and liver levels of sorafenib” value in the series with Oatp1a/1b;Abcc2;Abcc3 is “not substantially altered”. Further, the “sorafenib uptake relative to control vesicles” value at human ABCC2 (sorafenib 10 µM, 5-min incubation, ATP 4 mM) was “moderately increased”. In the series on Abcc2 [6] (oral sorafenib 10 mg/kg), the “biliary output of sorafenib, Abcc2(−/−) compared to wildtype mice” value is “not associated with altered”; the “liver uptake of sorafenib, Abcc2(−/−) compared to wildtype mice” value is “not associated with altered”; the “plasma disposition of sorafenib, Abcc2(−/−) compared to wildtype mice” value was “not associated with altered”.

A word on the Km: it is the substrate concentration at which the rate is half of its maximum. In the case of sorafenib-glucuronide [SG], the “uptake of SG relative to control vesicles” value on rat Abcc2 (SG 10 µM), on mouse Abcc2, on human ABCC4 (setting [8]), at human ABCC3 (setting [8]) and on human ABCC2 (setting [8]) was “efficiently increased” throughout. Further, the “transport efficiency, lower than that observed for ABCC2” value on human ABCC4 (SG transport) and on human ABCC3 (SG transport) was “about 7 fold” throughout. Also, the entries for the “Vmax of SG transport” value on human ABCC4 (setting [9]) and at human ABCC3 (setting [9]) were 221 ± 11 pmol/min/mg and 196 ± 44 pmol/min/mg, respectively. The Km at human ABCC4 (setting [10]) was determined as 146 ± 14 µM; at human ABCC3 (setting [10]) it was 186 ± 72 µM. Further, the “SG in bile of wildtype or Abcc2(−/−) rats” value with Abcc2 [1] is “not detected”. For the same compound, the “SG in plasma of wildtype or Abcc2(−/−) rats” value in the series with Abcc2 [1] is listed as “not detected”. Moreover, the “concentrations of SG in plasma and liver, effect of Abcc4 deficiency” value in the series on Abcc4 and in the series with Abcc3;Abcc4 was “not substantially affected” in each case. The “maximal velocity (Vmax) of SG transport” value on human ABCC2 (setting [9]) was determined as 155 ± 11 pmol/min/mg. In the series with Abcc2 [6] (after oral sorafenib 10 mg/kg), the “SG liver-to-plasma ratio in Abcc2(−/−) versus wildtype mice” value is on record as “decreased”. In the series on Abcc2 [6] (after oral sorafenib 10 mg/kg), the “increase in SG liver concentrations in Abcc2(−/−) versus wildtype mice” value was ~ 3 fold. Moreover, the “increase of plasma levels of SG in Abcc2(−/−) versus wildtype mice” value with Abcc2 [6] (after oral sorafenib 10 mg/kg) was ~ 350 fold. Also, in the series on Abcc2 [6] (after oral sorafenib 10 mg/kg, bile collected for 2 hours), the “reduction of biliary output of SG in Abcc2(−/−) versus wildtype mice” value is ~ 12 fold. For the same compound, the urinary excretion result in the series on Abcc2 [6] (after oral sorafenib 10 mg/kg, irrespective of Abcc2 status) is reported as “minor route of elimination”.
